Data on one compound can be found in patent publication US20230404981A1, “[…] ACTIVE COMPOUND FORMULATIONS” (priority 2020, published 2023).

The data set in a line: in vivo. As to conditions: Sprague Dawley, rat; for AUC(0-t) / Cmax / Tmax: im.

Procedure: An in vivo pharmacology study was completed in Sprague Dawley rats over 14 days, to determine the drug release kinetics of 50, 100, or 200 mg/kg doses of niclosamide administered as intramuscular injections of an aqueous dispersion of niclosamide nanoparticles.
Each animal received two 0.2 mL injections, one in each thigh, of one of the 25, 50, or 100 mg/kg of niclosamide dispersions for a total dose of 50, 100, or 200 mg/kg of niclosamide in each animal.
Blood samples were taken via tail vein bleed 1, 3, 6 and 24 hours post dose followed by bleeds at day 3, 4, 7 and 14. Niclosamide concentrations from the plasma samples were quantified utilising a previously validated liquid chromatography mass spectrometry (LCMS) method.

`O=C(Nc1ccc([N+](=O)[O-])cc1Cl)c1cc(Cl)ccc1O` [niclosamide, 5-chloro-N-(2-chloro-4-nitrophenyl)-2-hydroxybenzamide]: the concentration at 24 h is 140000 ng/g. Where the note is “50 mg/kg”, the AUC(0-t) (usually the area under the concentration-time curve up to a stated or last time point) stood at 24800 ng·h/mL; the Cmax (as a rule, the maximum level reached in the sampled fluid or tissue) stood at 1410 ng/mL; the Tmax (as a rule, the time from dosing to the highest level) was 2.5 h. Moreover, for the setting “100 mg/kg”, the AUC(0-t) came to 47500 ng·h/mL, the Cmax stood at 2040 ng/mL and the Tmax was determined as 2 h. Besides, where the note is “200 mg/kg”, the AUC(0-t) turned out to be 58300 ng·h/mL, the peak level (Cmax) was 3130 ng/mL and the Tmax was 3 h.
